# Measured values taken from publication PMC9352670 (2022).
# What was measured:
# [1] = system: Dm-HS-5 (DNA, aptamer, HFNAP: side-chain on 5' nucleobase of each coding trinucleotide, positions 19,22,25,...,61 (codon key Figure 1B)) GAAAGCAGGACTGGAGATCGATTCTGGTGCTGTTGATCTCCGCCATTGTGCTCCTGCCCTTCACAGACCGAACTAGAGCTT; assay: microscale thermophoresis; conditions: 5 mM KCl, 1 mM MgCl2, 1 mM CaCl2 added; HBS-P+ buffer, 25 °C
# [2] = system: Dm-HS-7 ∆ s.c. (DNA, aptamer, none (no side-chains)) GAAAGCAGGACTGGAGATCGATTGCAGTTACGTTGCTAGTCCCCTTGATCACCTCCGTCACCTCAGACCGAACTAGAGCTT; assay: microscale thermophoresis; conditions: 5 mM KCl, 1 mM MgCl2, 1 mM CaCl2 added; HBS-P+ buffer, 25 °C
# [3] = system: Dm-HS-10 ∆ s.c. (DNA, aptamer, none (no side-chains)) GAAAGCAGGACTGGAGATCCTTCGCATCGGCTTTCTCCCTGTCACCCCTGTTCCCCTTGACCGCAGACCGAACTAGAGCTT; assay: microscale thermophoresis; conditions: 5 mM KCl, 1 mM MgCl2, 1 mM CaCl2 added; HBS-P+ buffer, 25 °C
# [4] = system: Dm-HS-1 TGT ∆ s.c. (DNA, aptamer, as Dm-HS-1 but no side-chain at 31: fluorophenyl at 19; allylamine at 22,25,37; alcohol at 28,34,49; phenol at 46; cyclopentyl at 40; cyclopropyl at 43,58; imidazole at 52,55,61) GAAAGCAGGACTGGAGATCGATTCTGGTGCTGTTGATCTCCGCCATTGTGCTCCTACCCTTCACAGACCGAACTAGAGCTT; assay: microscale thermophoresis; conditions: 5 mM KCl, 1 mM MgCl2, 1 mM CaCl2 added; HBS-P+ buffer, 25 °C
# [5] = system: Dm-HS-1 CCA ∆ s.c. (DNA, aptamer, as Dm-HS-1 but no side-chain at 43: fluorophenyl at 19; allylamine at 22,25,37; alcohol at 28,34,49; phenol at 31,46; cyclopentyl at 40; cyclopropyl at 58; imidazole at 52,55,61) GAAAGCAGGACTGGAGATCGATTCTGGTGCTGTTGATCTCCGCCATTGTGCTCCTACCCTTCACAGACCGAACTAGAGCTT; assay: microscale thermophoresis; conditions: 5 mM KCl, 1 mM MgCl2, 1 mM CaCl2 added; HBS-P+ buffer, 25 °C
# [6] = system: Dm-reference-based-random-after-selection-1 (DNA, other, HFNAP: side-chain on 5' nucleobase of each coding trinucleotide, positions 19,22,25,...,61 (codon key Figure 1B)) GAAAGCAGGACTGGAGATCCATGTCCACCGTACCGCTACTGCTACTATTTGCTTCGGTACTGTCAGACCGAACTAGAGCTT; assay: microscale thermophoresis; conditions: 5 mM KCl, 1 mM MgCl2, 1 mM CaCl2 added; HBS-P+ buffer, 25 °C
# [7] = system: Dm-HS-7 (DNA, aptamer, HFNAP: side-chain on 5' nucleobase of each coding trinucleotide, positions 19,22,25,...,61 (codon key Figure 1B)) GAAAGCAGGACTGGAGATCGATTGCAGTTACGTTGCTAGTCCCCTTGATCACCTCCGTCACCTCAGACCGAACTAGAGCTT; assay: microscale thermophoresis; conditions: 5 mM KCl, 1 mM MgCl2, 1 mM CaCl2 added; HBS-P+ buffer, 25 °C
# [8] = system: Dm-HS-2 (DNA, aptamer, HFNAP: side-chain on 5' nucleobase of each coding trinucleotide, positions 19,22,25,...,61 (codon key Figure 1B)) GAAAGCAGGACTGGAGATCTATGGTCGCATCGTTGACCCTTGTCCTGCCCCTGTCTCTCTCAACAGACCGAACTAGAGCTT; assay: microscale thermophoresis; conditions: 5 mM KCl, 1 mM MgCl2, 1 mM CaCl2 added; HBS-P+ buffer, 25 °C
# [9] = system: Dm-HS-6 (DNA, aptamer, HFNAP: side-chain on 5' nucleobase of each coding trinucleotide, positions 19,22,25,...,61 (codon key Figure 1B)) GAAAGCAGGACTGGAGATTGGTAGTAACTGCTGTCCTGCTAATCATGCCGTTCACGCTGACCTCAGACCGAACTAGAGCTT; assay: microscale thermophoresis; conditions: 5 mM KCl, 1 mM MgCl2, 1 mM CaCl2 added; HBS-P+ buffer, 25 °C
# [10] = system: Dm-HS-1 (DNA, aptamer, HFNAP nucleobase side-chains: fluorophenyl at 19; allylamine at 22,25,37; alcohol at 28,34,49; phenol at 31,46; cyclopentyl at 40; cyclopropyl at 43,58; imidazole at 52,55,61) GAAAGCAGGACTGGAGATCGATTCTGGTGCTGTTGATCTCCGCCATTGTGCTCCTACCCTTCACAGACCGAACTAGAGCTT; assay: microscale thermophoresis; conditions: 5 mM KCl, 1 mM MgCl2, 1 mM CaCl2 added; HBS-P+ buffer, 25 °C
# [11] = system: Dm-LS-3 (DNA, aptamer, HFNAP: side-chain on 5' nucleobase of each coding trinucleotide, positions 19,22,25,...,61 (codon key Figure 1B)) GAAAGCAGGACTGGAGATTCGCATCGCTACTCCTCCTTGCCGTCCCACCGCCCACTGCTACCTCAGACCGAACTAGAGCTT; assay: microscale thermophoresis; conditions: 5 mM KCl, 1 mM MgCl2, 1 mM CaCl2 added; HBS-P+ buffer, 25 °C
# [12] = system: Dm-HS-6 ∆ s.c. (DNA, aptamer, none (no side-chains)) GAAAGCAGGACTGGAGATTGGTAGTAACTGCTGTCCTGCTAATCATGCCGTTCACGCTGACCTCAGACCGAACTAGAGCTT; assay: microscale thermophoresis; conditions: 5 mM KCl, 1 mM MgCl2, 1 mM CaCl2 added; HBS-P+ buffer, 25 °C
# [13] = system: Dm-HS-1 (DNA, aptamer, HFNAP, side-chains on nucleobases: fluorophenyl at 19; allylamine at 22, 25, 37; alcohol at 28, 34, 49; phenol at 31, 46; cyclopentyl at 40; cyclopropyl at 43, 58; imidazole at 52, 55, 61) GAAAGCAGGACTGGAGATCGATTCTGGTGCTGTTGATCTCCGCCATTGTGCTCCTACCCTTCACAGACCGAACTAGAGCTT; assay: gel filtration, radiolabelled ligand; conditions: 140 mM NaCl, 5 mM KCl, 1 mM MgCl2, 1 mM CaCl2; 20 mM Tris-HCl pH 7.4, 0.05% Tween 20, 25 °C; [3H]-daunomycin mixed with unlabelled; control sequence subtracted
# [14] = system: Dm-HS-1 TCT ∆ s.c. (DNA, aptamer, no side-chain at 37 (codon 7 TCT); others as HFNAP: fluorophenyl at 19; allylamine at 22, 25; alcohol at 28, 34, 49; phenol at 31, 46; cyclopentyl at 40; cyclopropyl at 43, 58; imidazole at 52, 55, 61) GAAAGCAGGACTGGAGATCGATTCTGGTGCTGTTGATCTCCGCCATTGTGCTCCTACCCTTCACAGACCGAACTAGAGCTT; assay: microscale thermophoresis; conditions: 5 mM KCl, 1 mM MgCl2, 1 mM CaCl2 added to HBS-P+; HBS-P+ buffer, 25 °C
compound,measurement,setting,value
COc1cccc2c1C(=O)c1c(O)c3c(c(O)c1C2=O)C[C@@](O)(C(C)=O)C[C@@H]3O[C@H]1C[C@H](N)[C@H](O)[C@H](C)O1,Kd,[1],6.16 ± 3.4 nM
same,Kd ∆ side-chains,[2],2490 ± 120 nM
same,Kd ∆ side-chains,[3],713 ± 28 nM
same,Kd,[4],6.7 ± 1.0 nM
same,Kd,[5],158.8 ± 14.2 nM
same,Kd,[6],63600 ± 2400 nM
same,Kd,[7],18.09 ± 5.2 nM
same,Kd,[8],4.77 ± 1.0 nM
same,Kd,[9],26.86 ± 4.2 nM
same,Kd,[10],12.85 ± 1.6 nM
same,Kd,[11],2230 ± 100 nM
same,Kd ∆ side-chains,[12],1510 ± 65 nM
same,Kd,[13],12.6 ± 3.5 nM
same,Kd,[14],12.9 ± 1.5 nM
